Structures are written as SMILES. Several values for one entry are separate records, joined by “and”; a condition that tells them apart may be missing. Equal values may be shown once.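 Interpolation was linear, between the two tested concentrations surrounding the appropriate level; five concentrations were tested over 48 hours in 96-well plates. GI50 is the concentration that inhibits growth by half. TGI denotes the concentration required for complete inhibition of growth.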

Among the test systems are NCI-H23 lung; HL-60(TB) leukemia; A498 renal; M14 melanoma; OVCAR-4 ovarian; SK-OV-3 ovarian; 786-0 renal; ACHN renal; MOLT-4 leukemia; RXF 393 renal.
What all share (assay): NCI-60 cell line screen, 48 h

As to `COc1ccc2c(c1)C(c1cc(OC)c3c(c1)OCO3)C1=C(COC1=O)N2` (stereo not given), the GI50 is 346 nM with NCI-H23 lung; 285 nM with HL-60(TB) leukemia; 105 nM with A498 renal; 233 nM with M14 melanoma; 1280 nM with OVCAR-4 ovarian; 305 nM with SK-OV-3 ovarian. Further, the GI50 with 786-0 renal was 469 nM; in the assay with ACHN renal it was 1570 nM; with MOLT-4 leukemia, 510 nM. Also, the TGI in the assay on NCI-H23 lung was > 64.9 µM; in the assay with HL-60(TB) leukemia it was 1070 nM; with A498 renal, 1.48 µM; with M14 melanoma it was 0.742 µM; in the assay with OVCAR-4 ovarian it was > 100 µM; in the assay on SK-OV-3 ovarian, 7.36 µM. The TGI in the assay on 786-0 renal was > 36 µM; in the assay with ACHN renal it was > 100 µM; in the assay on MOLT-4 leukemia, > 100 µM.

As for `O=C1CC(CC(OCc2ccccc2)C(OCc2ccccc2)C(COCc2ccccc2)OCc2ccccc2)CC(=O)N1` (stereo not given), the GI50 was > 100000 nM and 18600 nM with NCI-H23 lung; > 100000 nM and 21700 nM in the assay on A498 renal; > 100000 nM and 19800 nM in the assay with M14 melanoma; 24500 nM and 2720 nM in the assay with RXF 393 renal; > 100000 nM and 11000 nM in the assay with 786-0 renal; > 100000 nM and 18200 nM with ACHN renal. Also, the TGI in the assay on NCI-H23 lung is > 100 µM; with HL-60(TB) leukemia, > 100000 nM and 25400 nM; with A498 renal, > 100 µM and 89 µM; with M14 melanoma, > 100 µM; with OVCAR-4 ovarian it was > 100 µM; in the assay with RXF 393 renal, > 100 µM and 15 µM. Besides, the TGI with 786-0 renal was > 100 µM and 49.3 µM; with ACHN renal it was > 100 µM; in the assay with MOLT-4 leukemia, > 100 µM and 35.3 µM.

Consider `COC(=O)[C@@H](C)C[C@H](Cc1ccccc1)NC(=O)c1csc([C@@H](C[C@H](C(C)C)N(C)C(=O)[C@@H](NC(=O)[C@H]2CCCN2C)C2CC2)OC(C)=O)n1`, for which the GI50 in the assay on NCI-H23 lung was 3.65 nM and 2.5 nM; with HL-60(TB) leukemia it was 0.219 nM and < 2.5 nM; with A498 renal it was 1.47 nM and < 2.5 nM; with SK-OV-3 ovarian it was 8.3 nM and 2.5 nM; in the assay with RXF 393 renal, 2.5 nM; in the assay with 786-0 renal, 4.79 nM and 2.5 nM. In addition, the GI50 was 4.19 nM and 2.5 nM with ACHN renal; 3.16 nM and 2.5 nM in the assay with MOLT-4 leukemia. In addition, the TGI in the assay on NCI-H23 lung is > 25 µM; with HL-60(TB) leukemia it was 0.738 nM and < 2.5 nM; with A498 renal it was 0.00817 µM and < 0.0025 µM; in the assay on OVCAR-4 ovarian, > 25 µM; in the assay on SK-OV-3 ovarian, > 25 µM; in the assay with RXF 393 renal, > 25 µM. Further, the TGI with 786-0 renal, in the assay with ACHN renal and in the assay with MOLT-4 leukemia was > 25 µM in each case.

With `CCNCCNc1cc(-c2ccc(C(F)(F)F)cc2)c(C#N)c2nc3cc(Cl)c(Cl)cc3n12`, the GI50 was 1770 nM in the assay on NCI-H23 lung; 308 nM in the assay with HL-60(TB) leukemia; 2000 nM in the assay with A498 renal; 1590 nM in the assay on M14 melanoma; 1410 nM in the assay on OVCAR-4 ovarian; 2010 nM in the assay with SK-OV-3 ovarian. The figures for the GI50 with RXF 393 renal, with 786-0 renal and in the assay on ACHN renal were 1300 nM, 1530 nM and 1610 nM, respectively. Also, the TGI in the assay on NCI-H23 lung was determined as 3.52 µM; with HL-60(TB) leukemia, 1010 nM; with A498 renal it was 3.6 µM; in the assay on M14 melanoma, 3.12 µM; with OVCAR-4 ovarian, 3.14 µM; with SK-OV-3 ovarian, 3.45 µM. Moreover, the values for the TGI in the assay on RXF 393 renal, in the assay on 786-0 renal and with ACHN renal were 2.62 µM, 3.02 µM and 3.1 µM, respectively.

For `C=C1C(=O)O[C@H]2[C@H]1CC/C(CNC(=O)/C=C/c1ccccc1F)=C\CC[C@@]1(C)O[C@@H]21`, the GI50 in the assay with NCI-H23 lung was 1880 nM; in the assay with A498 renal, 2600 nM; with M14 melanoma, 1340 nM; in the assay on OVCAR-4 ovarian, 1660 nM; with SK-OV-3 ovarian, 13100 nM; in the assay with RXF 393 renal it was 1240 nM. For the same compound, the GI50 is 1590 nM in the assay with 786-0 renal, 1120 nM in the assay on ACHN renal and 1550 nM in the assay with MOLT-4 leukemia. For the same compound, the TGI with NCI-H23 lung turned out to be 4.42 µM; in the assay with A498 renal it was 7.49 µM; in the assay with M14 melanoma it was 3.05 µM; in the assay on OVCAR-4 ovarian, 4.57 µM; in the assay on SK-OV-3 ovarian it was 28.3 µM; in the assay on RXF 393 renal, 2.7 µM. The TGI in the assay on 786-0 renal was 3.71 µM; in the assay with ACHN renal, 2.53 µM; with MOLT-4 leukemia it was 4.86 µM.

For the compound `COc1cc2c(c(OC)c1OC)-c1c(c3ccc([N+](=O)[O-])cc3c(=O)n1CCCN)C2=O`, the GI50 with NCI-H23 lung was 2350 nM; in the assay on A498 renal it was 8220 nM; with M14 melanoma, 835 nM; in the assay with OVCAR-4 ovarian, 2900 nM; with SK-OV-3 ovarian, 12800 nM; in the assay with RXF 393 renal, 2050 nM. For the same compound, the GI50 in the assay with 786-0 renal is 799 nM; in the assay with ACHN renal, 8060 nM; in the assay on MOLT-4 leukemia it was 5820 nM. For the same compound, the TGI with NCI-H23 lung was determined as 10.2 µM; with A498 renal it was 18 µM; in the assay with M14 melanoma it was 1.53 µM; with OVCAR-4 ovarian it was 12.9 µM; in the assay with SK-OV-3 ovarian, 25.1 µM; in the assay on RXF 393 renal, 3.86 µM. For the same compound, the TGI came to 1.51 µM in the assay on 786-0 renal, 16.6 µM in the assay with ACHN renal and 14.2 µM in the assay on MOLT-4 leukemia.

For `COc1cc(CCNC(=O)OC(C)(C)C)c2c(c1OC)SSSSS2`, the GI50 was 3560 nM in the assay on NCI-H23 lung; 2920 nM in the assay on HL-60(TB) leukemia; 1600 nM with A498 renal; 4130 nM with M14 melanoma; 2050 nM in the assay with OVCAR-4 ovarian; 2800 nM in the assay with SK-OV-3 ovarian. Also, the GI50 in the assay with 786-0 renal is 2080 nM; in the assay on ACHN renal, 2560 nM; in the assay on MOLT-4 leukemia, 5460 nM. Besides, the TGI with NCI-H23 lung is 20.3 µM; in the assay with HL-60(TB) leukemia, 13400 nM; in the assay with A498 renal, 3.09 µM; in the assay on M14 melanoma, 50.7 µM; with OVCAR-4 ovarian, 4.82 µM; in the assay with SK-OV-3 ovarian it was 6.05 µM. Also, the TGI in the assay with 786-0 renal was 5.56 µM; in the assay with ACHN renal, 4.93 µM; with MOLT-4 leukemia it was > 100 µM.

For the compound `O=C(c1ccccc1)c1nc2ccc(C(F)(F)F)cc2nc1N1CCN(c2ccccc2)CC1`, the GI50 in the assay with NCI-H23 lung was 25700 nM; in the assay on HL-60(TB) leukemia, 30900 nM; in the assay on A498 renal, 27900 nM; with M14 melanoma, 23200 nM; in the assay with SK-OV-3 ovarian, > 100000 nM; in the assay on RXF 393 renal, 35500 nM. The GI50 was 30700 nM in the assay with 786-0 renal, 21600 nM with ACHN renal and 24600 nM in the assay with MOLT-4 leukemia. The TGI in the assay on NCI-H23 lung was 69.5 µM; in the assay with HL-60(TB) leukemia it was > 100000 nM; with A498 renal, 68.6 µM; in the assay on M14 melanoma, 55.3 µM; with SK-OV-3 ovarian it was > 100 µM; in the assay on RXF 393 renal, > 100 µM. Further, the TGI in the assay with 786-0 renal was 76.1 µM; with ACHN renal it was 53.7 µM; in the assay on MOLT-4 leukemia, > 100 µM.

The values above are taken from PubChem BioAssay (NCI).
